Measurements as given in ChEMBL document CHEMBL3588827, “A new class of ghrelin O-acyltransferase inhibitors incorporating triazole-linked lipid mimetic groups” (Bioorg Med Chem Lett, 2015).
pIC50: −log10 of the molar value.

Target: T1, Membrane-bound ghrelin O-acyltransferase MBOAT4 (Homo sapiens, UniProt Q96T53)
T1 sequence (Q96T53 whole entry): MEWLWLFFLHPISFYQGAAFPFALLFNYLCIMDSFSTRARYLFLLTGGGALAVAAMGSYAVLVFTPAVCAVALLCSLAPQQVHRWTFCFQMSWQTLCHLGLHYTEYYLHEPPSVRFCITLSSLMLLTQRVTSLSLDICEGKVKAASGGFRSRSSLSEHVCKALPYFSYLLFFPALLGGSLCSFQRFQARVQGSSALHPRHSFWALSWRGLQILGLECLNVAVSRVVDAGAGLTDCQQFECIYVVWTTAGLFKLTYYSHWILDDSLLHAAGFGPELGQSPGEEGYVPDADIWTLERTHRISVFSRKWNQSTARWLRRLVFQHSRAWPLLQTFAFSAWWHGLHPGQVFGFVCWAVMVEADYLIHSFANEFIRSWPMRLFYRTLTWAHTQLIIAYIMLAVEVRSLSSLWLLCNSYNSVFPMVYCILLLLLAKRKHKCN
Experiment: Inhibition of human GOAT octanoylation activity expressed in insect Sf9 cell membranes using GSSFLCAcDan as substrate after 1 hr by reverse phase HPLC with fluorescence detection method

pIC50 | Structure (SMILES)
5.22 | CC(C)C[C@H](NC(=O)[C@H](Cc1ccccc1)NC(=O)[C@H](Cn1cc(Cc2ccccc2)nn1)NC(=O)[C@H](CO)NC(=O)CN)C(N)=O
6.15 | CC(C)C[C@H](NC(=O)[C@H](Cc1ccccc1)NC(=O)[C@H](Cn1cc(CCCc2ccccc2)nn1)NC(=O)[C@H](CO)NC(=O)CN)C(N)=O
< 6.00 | CC(C)C[C@H](NC(=O)[C@H](Cc1ccccc1)NC(=O)[C@H](Cn1cc(CCCCc2ccccc2)nn1)NC(=O)[C@H](CO)NC(=O)CN)C(N)=O
5.42 | CC(C)C[C@H](NC(=O)[C@H](Cc1ccccc1)NC(=O)[C@H](Cn1cc(CCc2ccccc2)nn1)NC(=O)[C@H](CO)NC(=O)CN)C(N)=O
